# Assay results from paper PMC9667543, “Discovery of Nanomolar-Affinity Pharmacological Chaperones Stabilizing the Oncogenic p53 Mutant Y220C” (ACS Pharmacology & Translational Science, 2022).
# Where two headings read alike, the source gives them in different places.
# Assays:
# [1] = biological target: T1, p53-Y220C (Homo sapiens, UniProt P04637, M133L/N239Y/N268D/V203A/Y220C); conditions: cited from earlier work
# T1 construct: Stabilized p53-Y220C DBD (residues 94−312) was expressed and purified as previously described; 6xHis (N, cleaved yes); lipoyl domain (N, cleaved yes); TEV protease cleavage site (N, cleaved yes); made in house; host or cells: E. coli Rosetta2 plac I
# [2] = biological target: T1, p53-Y220C; conditions: cited from earlier work; for stabilization of p53-Y220C (DSF): in vitro
# [3] = system: p53-Y220C cancer cell lines HUH-7, BXPC-3, NUGC-3; conditions: cited from earlier work
# [4] = system: p53; design: method as in PMID 31633398; conditions: in vitro; cited from earlier work
# [5] = biological target: T1, p53-Y220C; assay: Binding affinity by isothermal titration calorimetry (ITC); conditions: for LE (kcal/mol/NHA): ligand efficiency; for fold reduction in binding affinity compared with 4: versus unsubstituted pyrrole reference 4
# Description: Isothermal Titration Calorimetry (ITC)
# ITC experiments were conducted using a MicroCal iTC200 calorimeter. For forward titrations, the cell unit contained 25-50 μM protein in freshly dialyzed assay buffer (25 mM KPi, 150 mM NaCl, 1 mM TCEP, pH 7.2) with a final DMSO content of 5% (v/v), and the syringe contained 0.5-5 mM compound […]
# the same buffer. Injection steps used were 2 µL (initial injection: 0.5 µL) at a rate of 2 µL/s with 120 s or 240 s spacing, and all experiments were performed at 25-30 °C. Data were analyzed using MicroCal PEAQ-ITC analysis software. […]
# [6] = biological target: T1, p53-Y220C; assay: as above; conditions: Table 2; ITC reverse titrations, 4–15 μM ligand, 100–147 μM protein
# [7] = biological target: T1, p53-Y220C; assay: Thermal stabilization (ΔTm) by differential scanning fluorimetry (DSF); assay type: binding; conditions: 10× SYPRO Orange; for ΔTm at 200 µM: 8 μM protein; for ΔTm (°C) [L] = 200 μM: Table 1, 8 μM protein
# Description: Differential Scanning Fluorimetry (DSF)
# Protein thermal stabilization was determined using SYPRO orange (Life Technologies) as a dye that increases in fluorescence quantitatively upon binding to hydrophobic protein surfaces exposed upon thermal denaturation. Real-time melt analysis was recorded on a Bio-rad CFX Connect Real-time qPCR system. DSF measurements were performed using 8 μM protein and 10x SYPRO orange in assay buffer (25 mM KPi, 150 mM NaCl, 1 mM TCEP, pH 7.2) at a final DMSO concentration of 5% (v/v). ΔT m values were calculated as ΔT m = T m (protein + compound) − T m (protein). ΔT m values are reported as an average of three independent measurements. […]
# [8] = system: NUGC-3 (p53-Y220C); design: method as in PMID 29702446; conditions: at 10 μM; cited from earlier work
# [9] = system: p53 target genes PUMA, 9p21, BTG2, FAS, TNF, and TNFRSF10B; design: method as in PMID 29702446; conditions: qPCR; cited from earlier work
Compound,"Kd ([5]; Table 1, ITC, [prot] = 50 μM) [µM]",LE (kcal/mol/NHA) ([5]; Table 1),"ΔTm at 200 µM ([7]; Table 1, [L] = 200 μM) [°C]",melting point,other results
CCn1c2ccc(CNC)cc2c2ccc(-c3cc(C)cs3)cc21 [compound 1],,,,,"Kd ([1]; binding to the Y220C pocket): 2 µM; thermal shift (ΔTm) to the protein melting temperature ([2]; 250 μM [ligand]): over 3 °C; selective cell viability reduction ([3]; HUH-7 and NUGC-3 (p53-Y220C) versus HUH7-F1 (p53-Y220C KO) and NUGC-4 (p53-WT), narrow concentration range): induces selective cell viability reduction; p53 aggregation [4]: reduces p53 aggregation in vitro"
"CCN(CC)c1nc2c(C(=O)O)c(O)c(I)c(-n3cccc3)c2s1 [compound 2, reference compound]",,,,,"LE (kcal/mol/NHA) ([5]; Table 2): 0.34 kcal/mol/NHA; Kd [6]: 1.2 µM; ΔTm at 200 µM ([7]; Table 2, [L] = 200 μM): 2.3 °C; stabilization of p53-Y220C (DSF) [2]: stabilize p53-Y220C in vitro in a concentration-dependent manner"
CCNC(=O)c1c(O)c(I)c(-n2cccc2)c2sc(N(CC)CC)nc12 [compound 3],,,,,"NUGC-3 viability [8]: < 10%; Kd ([1]; literature value, ITC): 4 µM; transcription of p53 target genes [9]: enhanced and selective transcription of p53 target genes; stabilization of p53-Y220C (DSF) [2]: stabilize p53-Y220C in vitro in a concentration-dependent manner; selective cell viability reduction ([3]; HUH-7, BXPC-3, NUGC-3 versus NUGC-4, SW1088, WI38, HUH-7 p53-Y220C KO): induces selective cell viability reduction"
O=C(O)c1cc(I)c(-n2cccc2)c(I)c1O [compound 4],22,0.37,1.8,199 to 200 °C (dec.),
CN(C)Cc1ccc2c(c1)c1ccccc1n2CC(F)(F)F [compound 6],,,,,"Kd ([1]; supplementary CSV, previously reported compounds, no reference printed in the file): 37 µM"
O=C(O)c1cc(I)c(-n2cccn2)c(I)c1O [compound 17],,,0.7,241 °C (dec.),
O=C(O)c1cc(I)c(-n2ccnc2)c(I)c1O [compound 18],,,1,238 °C (dec.),
O=C(O)c1cc(I)c(-n2ccc3ccccc32)c(I)c1O [compound 19],,,-0.3,183 to 184 °C (dec.),ΔTm (°C) [L] = 200 μM [7]: induced virtually no stabilization
O=C(O)c1cc(I)c(-n2ccc(Cl)c2)c(I)c1O [compound 20],38,0.33,1.5,,
O=C(O)c1cc(I)c(-n2ccc(F)c2)c(I)c1O [compound 21],15,0.37,1.9,270 to 271 °C (dec.),
O=C(O)c1cc(I)c(-n2cc(F)c(F)c2)c(I)c1O [compound 22],25,0.33,1.9,217 to 218 °C (dec.),
O=C(O)c1cc(I)c(-n2ccc(C(F)(F)F)c2)c(I)c1O [compound 23],100,0.26,0.5,,fold reduction in binding affinity compared with 4 [5]: approximately 5 fold
O=C(O)c1cc(I)c(OCC(F)(F)F)c(I)c1O [compound 24],,,0.3,,
Cc1cccn1-c1c(I)cc(C(=O)O)c(O)c1I [compound 43],200,0.28,1.5,,
Cc1ccn(-c2c(I)cc(C(=O)O)c(O)c2I)c1 [compound 44],160,0.29,1.5,,
Cc1ccc(C)n1-c1c(I)cc(C(=O)O)c(O)c1I [compound 45],77,0.30,1.1,215 °C (dec.),fold reduction in binding affinity compared with 4 [5]: 3 fold
CC(=O)c1ccn(-c2c(I)cc(C(=O)O)c(O)c2I)c1 [compound 46],,,,235 to 236 °C (dec.),
CCc1ccn(-c2c(I)cc(C(=O)O)c(O)c2I)c1 [compound 47],,,0.5,,ΔTm (°C) [L] = 200 μM [7]: induced virtually no stabilization
COc1c(I)cc(C(=O)O)c(O)c1I [compound 62],120,0.38,1.5,197 to 198 °C (dec.),
CCOc1c(I)cc(C(=O)O)c(O)c1I [compound 63],86,0.37,1.5,194 to 195 °C (dec.),
CCCOc1c(I)cc(C(=O)O)c(O)c1I [compound 64],100,0.34,1.1,,
O=C(O)c1cc(I)c(OCCC(F)(F)F)c(I)c1O [compound 65],,,0.5,182 to 183 °C (dec.),
CCNc1ccc(C(=O)O)c(O)c1I [compound 67],,,1.5,147 °C (dec.),
O=C(O)c1cc(I)c(N2CCCC2)c(I)c1O [compound 70],,,0.3,146 °C (dec.),"Kd (μM) ([5]; Table 1, ITC, [prot] = 50 μM): did not exhibit measurable binding nor thermal stabilization; ΔTm (°C) [L] = 200 μM [7]: did not exhibit measurable binding nor thermal stabilization"
Cc1c(I)cc(C(=O)O)c(O)c1I [compound 74],,,0.3,,
CCc1c(I)cc(C(=O)O)c(O)c1I [compound 75],26,0.45,1.5,188 to 189 °C (dec.),
CCCc1c(I)cc(C(=O)O)c(O)c1I [compound 76],40,0.40,0.9,,
CCN(CC)c1nc2c(C(=O)O)c(O)c(I)c(-n3ccc(F)c3)c2s1 [compound 87],,,,,"LE (kcal/mol/NHA) ([5]; Table 2): 0.35 kcal/mol/NHA; fold improvement in affinity compared with parent 2 ([5]; versus parent MB710 (2)): approximately 4 fold; Kd [6]: 0.32 µM; ΔTm at 200 µM ([7]; Table 2, [L] = 200 μM): 2.7 °C"
CCN(CC)c1nc2c(C(=O)O)c(O)c(I)c(-n3cc(F)c(F)c3)c2s1 [compound 88],,,,216 to 217 °C,"LE (kcal/mol/NHA) ([5]; Table 2): 0.34 kcal/mol/NHA; Kd [6]: 0.39 µM; ΔTm at 200 µM ([7]; Table 2, [L] = 200 μM): 1.8 °C"
CCN(CC)c1nc2c(C(=O)O)c(O)c(I)c(-n3ccc(Cl)c3)c2s1 [compound 89],,,,,"LE (kcal/mol/NHA) ([5]; Table 2): 0.31 kcal/mol/NHA; fold weaker binding affinity compared with MB710 (2) ([5]; versus parent 2): ca. 2 fold; Kd [6]: 1.9 µM; ΔTm at 200 µM ([7]; Table 2, [L] = 200 μM): 2 °C"
